In patent publication US20230295234A1, “ANTIMICROBIAL PEPTIDOMIMETICS” (SPEXIS AG, priority 2020, published 2023):
Where two headings read alike, the source gives them in different places. Peptide text beside a SMILES is read from it.

Assays:
[1] = system: Klebsiella pneumoniae SSI3010; conditions: SSI3010
In short: (§1)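 First, bacterial colonies are suspended in saline and adjusted to 0.5 McFarland. Next, the suspension is diluted into cation-adjusted Mueller-Hinton II broth (approx. 5×10^5 CFU/mL). Finally, it is added to two-fold serially diluted peptide, with polysorbate 80 at 0.002% final.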

[2] = system: Escherichia coli MCR-1 Af 45
In short: as §1

[3] = system: Escherichia coli ATCC 25922; conditions: ATCC 25922
In short: as §1

[4] = system: human red blood cells (hRBC); test: Hemolysis of human red blood cells; assay type: cell-based; conditions: red cells of human, 1 h
In short: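 Percent hemolysis is OD540 of peptide-treated supernatant relative to water-lysed cells. Each peptide was tested at 200 μg/mL against 20% (v/v) washed human erythrocytes. Incubation was 1 h at 37 °C, 300 rpm.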

[5] = Mueller-Hinton broth II, 18-20 hours at 35° C.

| SMILES | Klebsiella pneumoniae SSI3010 MIC [1] | Escherichia coli MCR-1 Af 45 MIC ([2]; MCR-1 Af 45) | Escherichia coli ATCC 25922 MIC [3] | Hemolysis at 0.2 g/L [4] | Escherichia coli MCR-1 Af 45 MIC [2, 5] |
| --- | --- | --- | --- | --- | --- |
| CC[C@H](C)[C@H](NC(=O)[C@@H]1C[C@@H](O)CN1C(=O)[C@@H](N)C(C)C)C(=O)N[C@H](C(=O)N[C@@H](Cc1ccc(O)cc1)C(=O)N[C@@H]1C(=O)N[C@@H](CC(N)=O)C(=O)N[C@@H](CCCNC(=N)N)C(=O)N[C@@H](CCN)C(=O)N[C@@H]([C@@H](C)O)C(=O)N[C@H](CCN)C(=O)N[C@@H](CC(N)=O)C(=O)N[C@H](C(=O)N[C@@H](CCN)C(=O)N[C@@H](CCCNC(=N)N)C(=O)N[C@@H](Cc2ccc(O)cc2)C(=O)O)CSSC1(C)C)[C@@H](C)O [Example 173] (HELM PEPTIDE1{V.[Hyp].I.T.Y.[Pen].N.R.[Dab].T.[NCC[C@@H](N[*:1])C(=O)[*:2]].N.C.[Dab].R.Y}$PEPTIDE1,PEPTIDE1,6:R3-13:R3$$$V2.0; N-terminus and C-terminus assumed) | 0.5 mg/L | 0.25 mg/L | 0.25 mg/L | 0% | – |
| CC[C@H](C)[C@H](NC(=O)[C@@H]1C[C@@H](O)CN1C(=O)[C@@H](N)C(C)C)C(=O)N[C@H](C(=O)N[C@@H](Cc1ccc(O)cc1)C(=O)N[C@@H]1C(=O)N[C@@H](CC(N)=O)C(=O)N[C@@H](CCCNC(=N)N)C(=O)N[C@@H](CCN)C(=O)N[C@@H]([C@@H](C)O)C(=O)N[C@H](CCN)C(=O)N[C@@H](CCN)C(=O)N[C@H](C(=O)N[C@@H](CCN)C(=O)N[C@@H](CCCNC(=N)N)C(=O)N[C@@H](Cc2ccc(O)cc2)C(=O)O)CSSC1(C)C)[C@@H](C)O [Example 174] (HELM PEPTIDE1{V.[Hyp].I.T.Y.[Pen].N.R.[Dab].T.[NCC[C@@H](N[*:1])C(=O)[*:2]].[Dab].C.[Dab].R.Y}$PEPTIDE1,PEPTIDE1,6:R3-13:R3$$$V2.0) | 0.25 mg/L | – | 0.125 mg/L | 0% | 0.0625 mg/L |
| CC[C@H](C)[C@H](NC(=O)[C@@H]1C[C@@H](O)CN1C(=O)[C@@H](N)C(C)C)C(=O)N[C@H](C(=O)N[C@@H](Cc1ccc(O)cc1)C(=O)N[C@@H]1C(=O)N[C@@H](CC(N)=O)C(=O)N[C@@H](CCCNC(=N)N)C(=O)N[C@@H](CCN)C(=O)N[C@@H]([C@@H](C)O)C(=O)N[C@H](CCN)C(=O)N[C@@H](CCCCN)C(=O)N[C@H](C(=O)N[C@@H](CCN)C(=O)N[C@@H](CC(C)C)C(=O)N[C@@H](Cc2ccc(O)cc2)C(=O)O)CSSC1(C)C)[C@@H](C)O [Example 175] (HELM PEPTIDE1{V.[Hyp].I.T.Y.[Pen].N.R.[Dab].T.[NCC[C@@H](N[*:1])C(=O)[*:2]].K.C.[Dab].L.Y}$PEPTIDE1,PEPTIDE1,6:R3-13:R3$$$V2.0) | 0.5 mg/L | – | 0.25 mg/L | 0% | 0.25 mg/L |
| CC[C@H](C)[C@H](NC(=O)[C@@H]1C[C@@H](O)CN1C(=O)[C@@H](N)C(C)C)C(=O)N[C@H](C(=O)N[C@@H](Cc1ccc(O)cc1)C(=O)N[C@@H]1C(=O)N[C@@H](CC(N)=O)C(=O)N[C@@H](CCCNC(=N)N)C(=O)N[C@@H](CCN)C(=O)N[C@@H]([C@@H](C)O)C(=O)N[C@H](CCN)C(=O)N[C@@H](CCCCN)C(=O)N[C@H](C(=O)N[C@@H](CCN)C(=O)N[C@@H](CO)C(=O)N[C@@H](Cc2ccc(O)cc2)C(=O)O)CSSC1(C)C)[C@@H](C)O [Example 176] (HELM PEPTIDE1{V.[Hyp].I.T.Y.[Pen].N.R.[Dab].T.[NCC[C@@H](N[*:1])C(=O)[*:2]].K.C.[Dab].S.Y}$PEPTIDE1,PEPTIDE1,6:R3-13:R3$$$V2.0) | 0.5 mg/L | – | 0.25 mg/L | 0% | 0.25 mg/L |
| CC[C@H](C)[C@H](NC(=O)[C@@H]1C[C@@H](O)CN1C(=O)[C@@H](N)C(C)C)C(=O)N[C@H](C(=O)N[C@@H](Cc1ccc(O)cc1)C(=O)N[C@@H]1C(=O)N[C@@H](CC(N)=O)C(=O)N[C@@H](CCCNC(=N)N)C(=O)N[C@@H](CCN)C(=O)N[C@@H]([C@@H](C)O)C(=O)N[C@H](CCN)C(=O)N[C@@H](CCCCN)C(=O)N[C@H](C(=O)N[C@@H](CCN)C(=O)N[C@@H](CCN)C(=O)N[C@@H](Cc2ccc(O)cc2)C(=O)O)CSSC1(C)C)[C@@H](C)O [Example 177] (HELM PEPTIDE1{V.[Hyp].I.T.Y.[Pen].N.R.[Dab].T.[NCC[C@@H](N[*:1])C(=O)[*:2]].K.C.[Dab].[Dab].Y}$PEPTIDE1,PEPTIDE1,6:R3-13:R3$$$V2.0) | 0.25 mg/L | – | 0.125 mg/L | 0% | 0.125 mg/L |
| CC[C@H](C)[C@H](NC(=O)[C@@H]1C[C@@H](O)CN1C(=O)[C@@H](N)C(C)C)C(=O)N[C@H](C(=O)N[C@@H](Cc1ccc(O)cc1)C(=O)N[C@@H]1C(=O)N[C@@H](CC(N)=O)C(=O)N[C@@H](CCCNC(=N)N)C(=O)N[C@@H](CCN)C(=O)N[C@@H]([C@@H](C)O)C(=O)N[C@H](CCN)C(=O)N[C@@H](CCCCN)C(=O)N[C@H](C(=O)N[C@@H](CCN)C(=O)N[C@@H](CCCCN)C(=O)N[C@@H](Cc2ccc(O)cc2)C(=O)O)CSSC1(C)C)[C@@H](C)O [Example 178] (HELM PEPTIDE1{V.[Hyp].I.T.Y.[Pen].N.R.[Dab].T.[NCC[C@@H](N[*:1])C(=O)[*:2]].K.C.[Dab].K.Y}$PEPTIDE1,PEPTIDE1,6:R3-13:R3$$$V2.0) | 0.5 mg/L | – | 0.25 mg/L | 0% | 0.125 mg/L |
| CC[C@H](C)[C@H](NC(=O)[C@@H]1C[C@@H](O)CN1C(=O)[C@@H](N)C(C)C)C(=O)N[C@H](C(=O)N[C@@H](Cc1ccc(O)cc1)C(=O)N[C@@H]1C(=O)N[C@@H](CC(N)=O)C(=O)N[C@@H](CCCNC(=N)N)C(=O)N[C@@H](CCN)C(=O)N[C@@H]([C@@H](C)O)C(=O)N[C@H](CCN)C(=O)N[C@@H](CCCCN)C(=O)N[C@H](C(=O)N[C@@H](CCN)C(=O)N[C@@H](CCCN)C(=O)N[C@@H](Cc2ccc(O)cc2)C(=O)O)CSSC1(C)C)[C@@H](C)O [Example 179] (HELM PEPTIDE1{V.[Hyp].I.T.Y.[Pen].N.R.[Dab].T.[NCC[C@@H](N[*:1])C(=O)[*:2]].K.C.[Dab].[Orn].Y}$PEPTIDE1,PEPTIDE1,6:R3-13:R3$$$V2.0) | 0.25 mg/L | – | 0.125 mg/L | 0% | 0.0625 mg/L |
| CC[C@H](C)[C@H](NC(=O)[C@@H]1C[C@@H](O)CN1C(=O)[C@@H](N)C(C)C)C(=O)N[C@H](C(=O)N[C@@H](Cc1ccc(O)cc1)C(=O)N[C@@H]1C(=O)N[C@@H](CC(N)=O)C(=O)N[C@@H](CCCNC(=N)N)C(=O)N[C@@H](CCN)C(=O)N[C@@H]([C@@H](C)O)C(=O)N[C@H](CCN)C(=O)N[C@@H](CCCNC(N)=O)C(=O)N[C@H](C(=O)N[C@@H](CCN)C(=O)N[C@@H](CCCNC(=N)N)C(=O)N[C@@H](Cc2ccc(O)cc2)C(=O)O)CSSC1(C)C)[C@@H](C)O [Example 180] (HELM PEPTIDE1{V.[Hyp].I.T.Y.[Pen].N.R.[Dab].T.[NCC[C@@H](N[*:1])C(=O)[*:2]].[Cit].C.[Dab].R.Y}$PEPTIDE1,PEPTIDE1,6:R3-13:R3$$$V2.0) | 0.5 mg/L | – | 0.25 mg/L | 1% | 0.25 mg/L |
| CC[C@H](C)[C@H](NC(=O)[C@@H]1C[C@@H](O)CN1C(=O)[C@@H](NC)C(C)C)C(=O)N[C@H](C(=O)N[C@@H](Cc1ccc(O)cc1)C(=O)N[C@@H]1C(=O)N[C@@H](CC(N)=O)C(=O)N[C@@H](CCCNC(=N)N)C(=O)N[C@@H](CCN)C(=O)N[C@@H]([C@@H](C)O)C(=O)N[C@H](CCN)C(=O)N[C@@H](CCCCN)C(=O)N[C@H](C(=O)N[C@@H](CCN)C(=O)N[C@@H](CCCNC(=N)N)C(=O)N[C@@H](Cc2ccc(O)cc2)C(=O)O)CSSC1(C)C)[C@@H](C)O [Example 181] (HELM PEPTIDE1{[meV].[Hyp].I.T.Y.[Pen].N.R.[Dab].T.[NCC[C@@H](N[*:1])C(=O)[*:2]].K.C.[Dab].R.Y}$PEPTIDE1,PEPTIDE1,6:R3-13:R3$$$V2.0) | 0.25 mg/L | – | 0.125 mg/L | 0% | 0.125 mg/L |
| CC[C@H](C)[C@H](NC(=O)[C@@H]1C[C@@H](O)CN1C(=O)[C@@H](N)C(C)C)C(=O)N[C@H](C(=O)N[C@@H](Cc1ccc(O)cc1)C(=O)N[C@@H]1C(=O)N[C@@H](CN)C(=O)N[C@@H](CCCNC(=N)N)C(=O)N[C@@H](CCN)C(=O)N[C@@H]([C@@H](C)O)C(=O)N[C@H](CCN)C(=O)N[C@@H](CCCCN)C(=O)N[C@H](C(=O)N[C@@H](CCN)C(=O)N[C@@H](CCCNC(=N)N)C(=O)N[C@@H](Cc2ccc(O)cc2)C(=O)O)CSSC1(C)C)[C@@H](C)O [Example 182] (HELM PEPTIDE1{V.[Hyp].I.T.Y.[Pen].[NC[C@H](N[*:1])C(=O)[*:2]].R.[Dab].T.[NCC[C@@H](N[*:1])C(=O)[*:2]].K.C.[Dab].R.Y}$PEPTIDE1,PEPTIDE1,6:R3-13:R3$$$V2.0) | 0.25 mg/L | – | 0.0625 mg/L | 0% | 0.125 mg/L |
